Assay results as given in US20250268165A1, “METHOD FOR PRODUCING HAPLOID AND DOUBLED HAPLOID SUNFLOWER PLANTS BY MICROSPORE CULTURE” (KWS SAAT SE & Co. KGaA, priority 2022, published 2025).

How the values were obtained:
[1] = test system: isolated microspores of Helianthus annuus; experiment: Callus induction from isolated microspores with auxin analogs in induction media II (Example 4.2); assay type: cell-based; conditions: 1 mg/L (FIG. 8A), control with 2,4-D
Procedure: Solution of microspore density of 80.000 microspores per ml are centrifuged for 10 min at 200 g and supernatant is decanted. Induction media I (see, for example, Table 3.2) is added to the remaining microspores and divided into plastic tubes. Histone deacetylase inhibitor (HDACi) and colchicine are added to each tube and microspore solutions are stored at 26° C. for 2 days. If the HDACi trichostatin A (TSA) is used, it is dissolved in dimethylsulfoxide (DMSO) to a final concentration of between 1 nM and 10 μM, preferably 100 nM to 10 μM, more preferably 1 μM to 10 μM, depending on the genotype and the plant donor sources. If colchicine is used, it is dissolved in water to a final concentration of between 1 mg and 300 mg, preferably 10 mg to 200 mg, more preferably 50 mg to 100 mg, depending on the genotype and the plant donor sources. Another antimitotic agent, e.g., oryzalin and/or trifluralin, or any other chromosome doubling agent may be used as well. The HDACi and the chromosome doubling agent are removed by centrifugation for 10 min, 200 g. Supernatant is decanted, corresponding amount of induction media I is added, and microspores resuspended. Usually, an auxin or a (synthetic) analog thereof will usually be applied in a concentration of about 0.05 to about 3 mg/L. Tubes are incubated at 26° C. in the dark for several days. […]

[2] = test system: sunflower microspore derived calluses; experiment: Plant regeneration: shoots regenerated per callus unit after callus induction with auxin analogs (Example 4.2); assay type: cell-based, Helianthus annuus; conditions: auxin analog used during callus induction (FIG. 8B)
Procedure: Thereafter, microspore solutions are centrifuged for 10 min at 200 g and supernatant is decanted. Corresponding amounts of induction media II with different auxin and auxin analogs is added according to the treatments (see, for example, Table 3.3) and the microspore solution is plated in petri dishes and placed at […] for callus induction. Abbreviations used in Table 3.3: 3.5ME=3,5-dimethylphenoxyacetic acid; PHAA=Phenoxyacetic acid; 4-CPA or 4CIPA=p-Chlorophenoxyacetic acid.
Callus is removed from liquid media and transferred to regeneration media (see, for example, Table 4) with 1 mg/L BAP and grown at 26° C. in the light until plant regeneration is observed, approximately 2 weeks after transfer (FIG. 4)

[3] = test system: microspore derived sunflower shoots; experiment: Plant rooting of microspore derived shoots in rooting media (Example 5.2); assay type: in vivo, Helianthus annuus; conditions: rooting media (MS), 24° C. in the light, approximately 2 weeks after transfer; auxin 0.5 mg/L
Procedure: Shoots are transferred to growing/rooting medium (see, for example, Table 5) with or without one auxin (in the example PAA (phenylacetic acid) or IBA were used) and grown at 24° C. in the light until root formation is observed, approximately 2 weeks after transfer (FIG. 10).

[4] = test system: isolated microspores of Helianthus annuus, 007 Genotype; experiment: Callus induction from isolated microspores with different 2,4-D concentrations in induction media II (Example 4.3); assay type: cell-based
Procedure: Top row: arrows indicate where embryos are located (magnification). Bottom row: corresponding petri dish.
Solution of microspore density of 80.000 microspores per ml are centrifuged for 10 min at 200 g and supernatant is decanted. Induction media I (see, for example, Table 3.4) is added to the remaining microspores and divided into plastic tubes. Histone deacetylase inhibitor (HDACi) and colchicine are added to each tube and microspore solutions are stored at 26° C. for 2 days. If the HDACi trichostatin A (TSA) is used, it is dissolved in dimethylsulfoxide (DMSO) to a final concentration of between […] and 10 μM, preferably 100 nM to 10 μM, more preferably 1 μM to 10 μM, depending on the genotype and the plant donor sources. If colchicine is used, it is dissolved in water to a final concentration of between 1 mg and 500 mg, preferably 10 mg to 200 mg, more preferably 50 mg to 100 mg, depending on the genotype and the plant donor sources. The HDACi and the chromosome doubling agent are removed by centrifugation for 10 min, 200 g. Supernatant is decanted, corresponding amount of induction media I is added, and microspores resuspended. Tubes are incubated at 26° C. in the dark for several days.
Thereafter, microspore solutions are centrifuged for 10 min at 200 g and supernatant is decanted. Corresponding amounts of induction media II with different 2,4-D concentrations is added according to the treatments (see, for example, Table 3.5) and the microspore solution is plated in petri dishes and placed at 26° C. for callus induction.
Depending on tissue culture length, and the tissue culture system, at least one antibiotic can be added to Incubation Medium II, such as carbenicillin, penicillin or timentin. One to two weeks after isolation, the first microspore nuclear division can be observed (DAPI staining). Callus structures can be seen by eye after approximately three weeks after isolation.

Q: For O=C(O)COc1ccc(Cl)cc1 [4CIPA/4-CPA, p-Chlorophenoxyacetic acid], which “Callus quantity (callus number) in comparison to control” value [1] is on record?
A: tendency to increase callus quantity

Q: And the “Regeneration: number of shoots regenerated per callus unit in comparison to control” value [2]?
A: tendency to increase regeneration

Q: With O=C(O)CCCc1c[nH]c2ccccc12 [IBA, indole-3-butyric acid] as the compound, how does the “Cultivated plants showing root formation” value [3] read?
A: 68%

Q: With O=C(O)COc1ccc(Cl)cc1Cl [2,4-D, 2,4-Dichlorophenoxyacetic acid] as the compound, how does the “Generation of microspore-derived embryos” value ([4]; 0.5, 0.2, 0.1 mg/L 2,4-D and Ctrl 1 mg/L 2,4-D) read?
A: observed in all treatments

Q: And the “Induction of microspore division and callus formation” value ([4]; 0.5, 0.2, 0.1 mg/L 2,4-D and Ctrl 1 mg/L in induction media II, 007 Genotype (FIG. 9))?
A: able to induce microspore division and callus formation

Q: What about the “Callus formation of the treatments compared with control” value ([4]; 0.5, 0.2, 0.1 mg/L 2,4-D versus Ctrl 1 mg/L 2,4-D) of the same compound?
A: did not decreased or enhanced callus formation

Q: How did the “Regeneration: number of shoots regenerated per callus unit in comparison to control” value [2] turn out when Cc1cc(C)cc(OCC(=O)O)c1 [3.5ME, 3,5-dimethylphenoxyacetic acid] was run?
A: tendency to increase regeneration
